Each structure is given as a SMILES string. Toxic doses and inconclusive results are not listed.

This test deals with L1210 leukemia ip in BDF1 mice, survival T/C. Description: NCI In Vivo Anticancer Drug Screen. Data for tumor model L1210 Leukemia (intraperitoneal) in B6D2F1 (BDF1) mice. The settings on record: endpoint: mean survival time, higher = longer survival. Put shortly:
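Each compound was tested against a transplantable tumor grown in mice. The endpoint was survival, with treated animals benchmarked against vehicle controls as a simple ratio.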

Setting [1] is: dose: 100.0 mg/kg/injection, schedule: Q04DX002 (ip), vehicle: Klucel (hydroxypropylcellulose) (HPC).
The mark [2] stands for this setting: dose: 200.0 mg/kg/injection, schedule: Q04DX002 (ip), vehicle: Klucel (hydroxypropylcellulose) (HPC).
Where [3] appears, read: dose: 400.0 mg/kg/injection, schedule: Q04DX002 (ip), vehicle: Klucel (hydroxypropylcellulose) (HPC).
Setting [4] is: dose: 100.0 mg/kg/injection, schedule: Q04DX003 (ip), vehicle: saline with Tween-80.
[5] abbreviates: dose: 100.0 mg/kg/injection, schedule: Q01DX001 (ip), vehicle: Klucel (hydroxypropylcellulose) (HPC).
Where [6] appears, read: dose: 200.0 mg/kg/injection, schedule: Q01DX001 (ip), vehicle: Klucel (hydroxypropylcellulose) (HPC).
The mark [7] stands for this setting: dose: 100.0 mg/kg/injection, schedule: Q01DX009 (ip), vehicle: saline with Tween-80.
Where [8] appears, read: dose: 200.0 mg/kg/injection, schedule: Q01DX009 (ip), vehicle: saline with Tween-80.
The mark [9] stands for this setting: dose: 200.0 mg/kg/injection, schedule: Q04DX003 (ip), vehicle: saline with Tween-80.
Where [10] appears, read: dose: 400.0 mg/kg/injection, schedule: Q01DX009 (ip), vehicle: saline with Tween-80.
[11] abbreviates: dose: 400.0 mg/kg/injection, schedule: Q04DX003 (ip), vehicle: saline with Tween-80.

For the compound `COc1cc(C=Nc2cc(Cl)c(OC)c(Cl)c2)ccc1N(CCCl)CCCl`, the T/C is 121 % of control (dose: 26.0 mg/kg/injection, schedule: Q01DX001 (ip), vehicle: carboxymethylcellulose (CMC)); 120 % of control (dose: 26.0 mg/kg/injection, schedule: Q01DX009 (ip), vehicle: carboxymethylcellulose (CMC)); 118 % of control (dose: 29.0 mg/kg/injection, schedule: Q01DX001 (ip), vehicle: carboxymethylcellulose (CMC)); 94 % of control (dose: 40.0 mg/kg/injection, schedule: Q01DX009 (ip), vehicle: carboxymethylcellulose (CMC)); 114 % of control (dose: 44.0 mg/kg/injection, schedule: Q01DX001 (ip), vehicle: carboxymethylcellulose (CMC)); 121 % of control (dose: 150.0 mg/kg/injection, schedule: Q01DX001 (ip), vehicle: carboxymethylcellulose (CMC)). The T/C was 122 % of control (dose: 225.0 mg/kg/injection, schedule: Q01DX001 (ip), vehicle: carboxymethylcellulose (CMC)) and 122 % of control (dose: 300.0 mg/kg/injection, schedule: Q01DX001 (ip), vehicle: carboxymethylcellulose (CMC)).

As for `O=Cc1c(O)ccc2ccccc12`, the T/C is, setting by setting: under setting [1], 90 % of control; under setting [2], 93 % of control; under setting [3], 96 % of control.

With `C=CCC1(/C(C)=C/C)C(=O)NC(=O)NC1=O`, the T/C by setting is: (dose: 75.0 mg/kg/injection, schedule: Q01DX001 (ip), vehicle: saline) 100 % of control; (dose: 150.0 mg/kg/injection, schedule: Q01DX001 (ip), vehicle: saline) 94 % of control.

Turning to `CC1=C(C)CS(=O)(=O)C1`, the T/C was 95 % of control (dose: 25.0 mg/kg/injection, schedule: Q04DX003 (ip), vehicle: saline with Tween-80); 101 % of control (dose: 50.0 mg/kg/injection, schedule: Q04DX003 (ip), vehicle: saline with Tween-80); 102 % of control under setting [4].

In the case of `O=C(CC(=O)c1ccccc1)CC(=O)c1ccccc1`, the T/C is 97 % of control under setting [5]; 100 % of control under setting [6]; 94 % of control (dose: 400.0 mg/kg/injection, schedule: Q01DX001 (ip), vehicle: Klucel (hydroxypropylcellulose) (HPC)).

Take `Oc1cccc(/C=N/Nc2nnc(N/N=C/c3cccc(O)c3)c3ccccc23)c1`: the T/C runs as follows: (dose: 50.0 mg/kg/injection, schedule: Q01DX001 (ip), vehicle: carboxymethylcellulose (CMC)) 108 % of control; (dose: 100.0 mg/kg/injection, schedule: Q01DX001 (ip), vehicle: carboxymethylcellulose (CMC)) 101 % of control; (dose: 200.0 mg/kg/injection, schedule: Q01DX001 (ip), vehicle: carboxymethylcellulose (CMC)) 98 % of control; (dose: 400.0 mg/kg/injection, schedule: Q01DX001 (ip), vehicle: carboxymethylcellulose (CMC)) 96 % of control.

Take `CCCCN1C(=O)N(c2ccc(OCC)cc2)C2N(CCCC)C1C(C)(C)C2(C)C` (centres undefined): the T/C reads like this: (dose: 25.0 mg/kg/injection, schedule: Q04DX002 (ip), vehicle: saline with Tween-80) 103 % of control; (dose: 50.0 mg/kg/injection, schedule: Q04DX002 (ip), vehicle: saline with Tween-80) 118 % of control; (dose: 100.0 mg/kg/injection, schedule: Q04DX002 (ip), vehicle: saline with Tween-80) 122 % of control.

As for `Cc1ccc(NC(=O)N2CC2C)cc1NC(=O)N1CC1C` (centres undefined), the T/C by setting is: (dose: 2.5 mg/kg/injection, schedule: Q01DX009 (ip), vehicle: saline) 118 % of control; (dose: 20.0 mg/kg/injection, schedule: Q01DX009 (ip), vehicle: saline) 197 % of control.

Consider `C/C(=N\N(Cc1ccc(CN(/N=C(\C)c2ccccc2)c2ccccc2)cc1)c1ccccc1)c1ccccc1`, for which the T/C runs as follows: (dose: 100.0 mg/kg/injection, schedule: Q01DX001 (ip), vehicle: other) 86 % of control; (dose: 200.0 mg/kg/injection, schedule: Q01DX001 (ip), vehicle: other) 89 % of control; (dose: 400.0 mg/kg/injection, schedule: Q01DX001 (ip), vehicle: other) 89 % of control.

For the compound `CN(C)CCCNc1nc(-c2cc(C(F)(F)F)cc(C(F)(F)F)c2)nc(C(Cl)(Cl)Cl)n1`, the T/C runs as follows: under setting [1], 100 % of control; under setting [2], 92 % of control; under setting [3], 106 % of control.

As to `CN(C)CCCN1Cc2ccccc2C1`, the T/C (dose: 44.0 mg/kg/injection, schedule: Q01DX Z (ip), vehicle: saline) was 96 % of control; the T/C (dose: 66.0 mg/kg/injection, schedule: Q01DX Z (ip), vehicle: saline) is 100 % of control; the T/C (dose: 100.0 mg/kg/injection, schedule: Q01DX Z (ip), vehicle: saline) was 102 % of control.

On to `CCOC(OCC)C(O)CNc1ccc([N+](=O)[O-])cc1[N+](=O)[O-]` (centres undefined), for which the T/C is, setting by setting: (dose: 100.0 mg/kg/injection, schedule: Q04DX003 (ip), vehicle: Klucel (hydroxypropylcellulose) (HPC)) 98 % of control; (dose: 200.0 mg/kg/injection, schedule: Q04DX003 (ip), vehicle: Klucel (hydroxypropylcellulose) (HPC)) 101 % of control; (dose: 400.0 mg/kg/injection, schedule: Q04DX003 (ip), vehicle: Klucel (hydroxypropylcellulose) (HPC)) 103 % of control.

Consider `O=S(Cc1ccc(Cl)cc1)C(Cl)(Cl)c1ccc(Cl)cc1` (centres undefined), for which the T/C under setting [1] is 116 % of control, the T/C under setting [2] is 116 % of control and the T/C under setting [3] was 94 % of control.

On to `Cc1ccccc1NC(=O)c1ccc([N+](=O)[O-])cc1`, for which the T/C reads like this: under setting [7], 106 % of control; under setting [4], 98 % of control; under setting [8], 101 % of control; under setting [9], 94 % of control; under setting [10], 101 % of control; under setting [11], 98 % of control.

With `CCCCCCCN=C(N)c1ccc(C(=O)OC2CCCCC2)cc1`, the T/C (dose: 100.0 mg/kg/injection, schedule: Q01DX001 (ip), vehicle: saline) is 96 % of control.

For `CN(C)c1nnnn1-c1ccccc1`, the T/C runs as follows: (dose: 100.0 mg/kg/injection, schedule: Q04DX003 (ip), vehicle: saline) 100 % of control; (dose: 200.0 mg/kg/injection, schedule: Q04DX003 (ip), vehicle: saline) 96 % of control; (dose: 400.0 mg/kg/injection, schedule: Q04DX003 (ip), vehicle: saline) 105 % of control.

For the compound `CCC(C(=O)C(C)C(O)C(C)CCc1ccc(C)c(O)c1C(=O)O)C1OC(CC)(C2CCC(O)(CC)C(C)O2)CC1C` (centres undefined), the T/C runs as follows: (dose: 6.25 mg/kg/injection, schedule: Q04DX002 (ip), vehicle: saline) 100 % of control; (dose: 12.5 mg/kg/injection, schedule: Q04DX002 (ip), vehicle: saline) 92 % of control; (dose: 25.0 mg/kg/injection, schedule: Q04DX002 (ip), vehicle: saline) 92 % of control; (dose: 50.0 mg/kg/injection, schedule: Q04DX002 (ip), vehicle: saline) 103 % of control.

For `Cc1cc2oc(=O)c(Cl)c(NCCO)c2c(C)c1Cl`, the T/C is, setting by setting: under setting [7], 104 % of control; under setting [8], 96 % of control; under setting [10], 95 % of control.

Consider `CC(=O)OC1C(NC(=O)OCc2ccccc2)CC(NC(=O)OCc2ccccc2)C(O)C1O` (centres undefined), for which the T/C under setting [4] was 94 % of control and the T/C under setting [9] is 88 % of control.

`O=C1C=CC(=O)N1c1cccc2c(N3C(=O)C=CC3=O)cccc12`: the T/C by setting is: (dose: 11.1 mg/kg/injection, schedule: Q01DX Z (ip), vehicle: methylcellulose (MC)) 89 % of control; (dose: 16.6 mg/kg/injection, schedule: Q01DX Z (ip), vehicle: methylcellulose (MC)) 95 % of control; (dose: 25.0 mg/kg/injection, schedule: Q01DX Z (ip), vehicle: methylcellulose (MC)) 104 % of control.

`Nc1nc2c(ncn2-c2ccc(OCCCOc3ccc(S(=O)(=O)F)cc3)cc2)c(=O)[nH]1`: the T/C under setting [5] is 94 % of control and the T/C under setting [6] is 91 % of control.

Consider `COP(=O)(O)C(C)=O` (tested in a mixture with another compound), for which the T/C is, setting by setting: (dose: 100.0 mg/kg/injection, schedule: Q04DX002 (ip), vehicle: other) 96 % of control; (dose: 200.0 mg/kg/injection, schedule: Q04DX002 (ip), vehicle: other) 114 % of control; (dose: 400.0 mg/kg/injection, schedule: Q04DX002 (ip), vehicle: other) 101 % of control.

With `O=C(/C=C/c1ccc(O)cc1)c1ccccc1`, the T/C was 102 % of control under setting [7]; 109 % of control under setting [4]; 108 % of control under setting [8]; 102 % of control under setting [9]; 102 % of control under setting [10]; 98 % of control under setting [11].

Take `NC(N)=NS(=O)(=O)c1ccc(N)cc1`: the T/C is, setting by setting: under setting [7], 98 % of control; under setting [8], 95 % of control; under setting [10], 91 % of control.

The record behind these values is PubChem BioAssay AID248 (DTP/NCI, 2004).
